What is called IC50 is the concentration that inhibits the measured activity by half.

Structures are written as SMILES.

Here are results for one compound from paper PMC7559245 (iScience, 2020).

The assay relates to Kv2.1 channel. Put plainly: whole-cell patch clamp in CHO-Kv2.[…] cells. Format: cell-based. (In general: Patch clamp records ionic current or voltage across a cell membrane.)

For the compound `CCN(CC)CCOC(=O)C(c1ccccc1)C1CCCCC1` (stereo not shown) [Dfe, drofenine], the IC50 worked out at 9.53 µM.
